Reference: BindingDB's records for doi:10.1016/j.bmc.2007.07.029 (Polish Academy of Sciences, 2007)
pKi: −log10 of the molar value.

What was measured:
Assay in all cases: Radioligand Binding Assay (Ki)
[1] = biological target: 5-hydroxytryptamine receptor 7 (Homo sapiens, UniProt P34969); conditions: pH 7.4; 37 °C
Experimental: (§1) Competition experiments were performed in the presence radioligand with membrane protein and test compounds. After incubation, the reaction stopped by rapid filtration onto a 96-well GF/B filter. Radioactivity retained on the filters was measured by liquid scintillation counting (Beckman LS 6500 apparatus). IC50 values for test compounds were determined from nonlinear regression analysis of data collected from ligand binding experiments. The inhibition constant (Ki) was calculated from IC50 value by the Cheng and Prusoff equation.

[2] = biological target: T1, 5-hydroxytryptamine receptor 1A (Rattus norvegicus, UniProt P19327); conditions: pH 7.4; 37 °C
T1 sequence (P19327 whole entry): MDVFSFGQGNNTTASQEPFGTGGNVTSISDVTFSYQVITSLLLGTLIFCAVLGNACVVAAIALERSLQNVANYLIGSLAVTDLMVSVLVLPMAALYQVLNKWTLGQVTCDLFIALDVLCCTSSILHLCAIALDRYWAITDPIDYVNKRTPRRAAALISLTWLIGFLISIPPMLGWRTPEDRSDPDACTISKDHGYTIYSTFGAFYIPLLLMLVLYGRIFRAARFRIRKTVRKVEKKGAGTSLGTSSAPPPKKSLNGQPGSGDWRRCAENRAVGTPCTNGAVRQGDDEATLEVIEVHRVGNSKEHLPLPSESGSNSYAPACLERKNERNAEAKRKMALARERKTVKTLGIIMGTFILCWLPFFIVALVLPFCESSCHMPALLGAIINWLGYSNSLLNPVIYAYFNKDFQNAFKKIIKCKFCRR
Experimental: as §1

D(2) dopamine receptor = D(2) dopamine receptor (Rattus norvegicus, UniProt P61169)
D(2) dopamine receptor, sequence (P61169 whole entry): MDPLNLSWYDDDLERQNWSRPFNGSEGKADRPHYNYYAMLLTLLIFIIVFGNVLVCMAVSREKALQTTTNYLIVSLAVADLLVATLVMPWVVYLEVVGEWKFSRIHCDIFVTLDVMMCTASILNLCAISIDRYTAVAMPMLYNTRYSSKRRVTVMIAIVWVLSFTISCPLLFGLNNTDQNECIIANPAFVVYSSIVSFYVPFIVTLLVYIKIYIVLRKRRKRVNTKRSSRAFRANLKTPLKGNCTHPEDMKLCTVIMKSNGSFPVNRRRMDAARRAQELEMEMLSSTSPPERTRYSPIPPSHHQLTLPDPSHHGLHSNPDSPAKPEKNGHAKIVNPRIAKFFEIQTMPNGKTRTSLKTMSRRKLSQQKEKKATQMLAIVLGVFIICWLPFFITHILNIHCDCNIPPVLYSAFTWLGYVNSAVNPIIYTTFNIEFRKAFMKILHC
Experimental: as §1

[3] = biological target: T2, Alpha-1B adrenergic receptor (Rattus norvegicus, UniProt P15823)
T2 sequence (P15823 whole entry): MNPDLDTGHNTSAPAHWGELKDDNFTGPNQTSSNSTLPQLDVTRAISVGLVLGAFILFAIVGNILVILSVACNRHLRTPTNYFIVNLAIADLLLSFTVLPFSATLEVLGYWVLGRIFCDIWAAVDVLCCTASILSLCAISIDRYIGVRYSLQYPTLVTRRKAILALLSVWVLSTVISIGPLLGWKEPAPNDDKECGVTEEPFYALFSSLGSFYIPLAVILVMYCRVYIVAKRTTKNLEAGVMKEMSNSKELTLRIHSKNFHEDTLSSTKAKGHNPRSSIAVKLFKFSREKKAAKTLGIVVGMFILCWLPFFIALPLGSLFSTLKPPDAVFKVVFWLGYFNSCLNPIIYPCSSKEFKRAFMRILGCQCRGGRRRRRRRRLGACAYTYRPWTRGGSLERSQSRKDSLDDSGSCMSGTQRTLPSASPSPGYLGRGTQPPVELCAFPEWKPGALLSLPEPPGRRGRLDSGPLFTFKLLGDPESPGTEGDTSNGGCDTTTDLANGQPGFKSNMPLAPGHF
Experimental: as §1

5-hydroxytryptamine receptor 7, sequence (P34969 whole entry): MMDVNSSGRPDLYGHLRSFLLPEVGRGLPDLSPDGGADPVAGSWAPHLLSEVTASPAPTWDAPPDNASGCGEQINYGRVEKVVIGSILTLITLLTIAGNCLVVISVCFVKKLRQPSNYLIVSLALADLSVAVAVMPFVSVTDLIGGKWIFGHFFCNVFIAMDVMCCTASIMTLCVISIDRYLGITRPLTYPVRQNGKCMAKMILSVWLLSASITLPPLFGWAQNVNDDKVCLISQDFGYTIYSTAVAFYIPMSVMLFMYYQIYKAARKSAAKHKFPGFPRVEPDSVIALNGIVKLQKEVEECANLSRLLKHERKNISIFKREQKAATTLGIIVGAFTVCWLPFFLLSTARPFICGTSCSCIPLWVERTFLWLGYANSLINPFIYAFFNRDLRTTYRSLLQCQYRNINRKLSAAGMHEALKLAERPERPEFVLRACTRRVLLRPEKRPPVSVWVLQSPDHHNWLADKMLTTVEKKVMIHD

For `O=C1CCC(=O)N1C1CCC(N2CCN(c3cccc(C(F)(F)F)c3)CC2)CC1` (centres undefined) [1-(m-trifluorophenyl)piperazine, 4], the pKi [1] was 5.74, the pKi [2] was 8.40 and the pKi (D(2) dopamine receptor) was under 4.60. For the same compound, the pKi [3] was 6.30.
